For data set [1] the following is noted: 101 kPa, Liquid; for speed of sound: Pulse-echo method.
Data set [2] can be described thus: refractive index (Na D-line) (dimensionless). To be noted: 101.33 kPa, Liquid, Standard Abbe refractometry.

“And” between values parts separate entries of the source, which are not always exact repeats. Equal values may be shown once. Numbers after ± are expanded uncertainties.

As for `C1CCCCCCC1` [cyclooctane], the mass density turned out to be 831.5 ± 0.5 kg/m3 in data set [1] (298.15 K) and 819.2 ± 0.5 kg/m3 in data set [1] (313.15 K). For the same compound, the speed of sound was 1391 ± 2 m/s in data set [1] (298.15 K); 1326 ± 2 m/s and 1325 ± 2 m/s in data set [1] (313.15 K). Moreover, the refractive index stood at 1.45598 ± 0.00061 in data set [2] (298.15 K) and 1.44877 ± 0.00061 in data set [2] (313.15 K).

With `CC1CCCCC1` [methylcyclohexane], the mass density was 765 ± 0.6 kg/m3 and 765.1 ± 0.6 kg/m3 in data set [1] (298.15 K); 751.9 ± 0.6 kg/m3 in data set [1] (313.15 K). In addition, the figures for the speed of sound in data set [1] (298.15 K) and in data set [1] (313.15 K) were 1215 ± 2 m/s and 1150 ± 2 m/s, respectively. For the same compound, the refractive index in data set [2] (298.15 K) was 1.42062 ± 0.00064; in data set [2] (313.15 K), 1.41274 ± 0.00064 and 1.41274 ± 0.001.

In the case of `C1CCCCC1` [cyclohexane], the mass density is 773.9 ± 0.5 kg/m3 in data set [1] (298.15 K); 759.6 ± 0.5 kg/m3 and 759.59 ± 0.5 kg/m3 in data set [1] (313.15 K). Further, the speed of sound in data set [1] (298.15 K) is 1255 ± 2 m/s; in data set [1] (313.15 K), 1182 ± 2 m/s. Also, the refractive index turned out to be 1.4236 ± 0.00064 in data set [2] (298.15 K) and 1.41516 ± 0.00064 in data set [2] (313.15 K).

A word on the mass density: it is mass per unit of volume. Broadly, the speed of sound is how fast a sound wave travels through the sample. Broadly, the refractive index is a measure of how strongly the sample bends light.

The values are drawn from the NIST ThermoML archive (doi:10.1021/je901020a).
